Data on 3 molecules can be found in EP3785697A1, “COSMETIC COMPOSITIONS COMPRISING PIPERLONGUMINE” (Unilever N.V., priority 2019, dated 2021).

In one series the test system is IL-6. The series is described as follows: Human immune cell line THP-1 in vitro assay, IL-6 measured by ELISA in supernatant. Type of series: cell-based.
The nature of a further series: in vitro. The settings on record: human, oral keratinocytes.
For series [1] the following is noted: 25°C; cited from earlier work.
Series [2] in a line: Human immune cell line THP-1 in vitro assay, cell viability. The settings on record: thp-1 cells, Cell viability (%).
Experimental: (§1) In this assay, the concentration of IL-6 (Interleukin-6) and the % cell viability are measured. Widening of therapeutic window is indicated by the concentration of Interleukin-6 (IL-6) as measured on the Human Immune cell Line using the THP-1 invitro assay in pg/ml and the % cell viability of THP-1 cells.
(§2) Cells were differentiated in 24-well plates at the density of 5 x 10^5 cells / well with 100 nM PMA for 72 hours. Cells were then co-treated with E.coli lipopolysaccharides (LPS) and single concentration or a combination of piperlongumine and L-cystine at different doses. After 24 hours, the supernatants were collected for measurement of interleukin (IL)-6 as a pro-inflammatory biomarker using enzyme-linked immunosorbent assay (ELISA).
Series [3] is described as follows: Human oral keratinocytes (HOK) in vitro assay, cell viability by cell counting kit-8. The following applies: human, oral keratinocytes, Cell viability (%), Table 3, Piperlongumine 15 µM, HOKs treated with heat killed P.gingivalis, Control 100. For orientation: Tetrazolium dyes change colour on reduction, which living cells bring about.
Experimental: (§3) HOKs (Passage 4-6) were seeded in 96 well-plates at the density of 2 x 10^4 cells / well overnight. On the experimental day the cells were treated with heat killed P.gingivalis and single concentration or a combination of piperlongumine and L-cystine at different doses. After 24 hours, cell viability was measured with cell counting kit-8.
Series [4] concerns Human oral keratinocytes (HOK). The description is as above. The following applies: Table 3; Piperlongumine 15 µM, HOKs treated with heat killed P.gingivalis, 24 hours; Control 100; 1440 min, 15 µM.
Experimental: as §3
A further series relates to THP-1 cells. The following applies: human, 24 h, 100 µM.

In brackets after ≈: the same amount, converted by molar mass.

Experimental for IL-6: as §1, §2
Experimental for THP-1 cells: as §1, §2

One may read the viability as a read-out of living cells in per cent, often relative to untreated cells. On to `N[C@@H](CSSC[C@H](N)C(=O)O)C(=O)O` [L-cystine], for which the “Concentration of IL-6” value in the series with IL-6 (Table 1, L-cystine 100 µM, co-treated with E.coli LPS, 24 hours, Control 98, LPS alone 2252) is recorded as 1896 pg/mL. Besides, in the series “in vitro”, the viability at 24 h, 50 µM amounted to 102% and the viability at 24 h, 100 µM amounted to 109%. For the same molecule, in series [1], the Solubility in water was 0.112 mg/mL (≈ 466 µM).

In the case of `COc1cc(/C=C/C(=O)N2CCC=CC2=O)cc(OC)c1OC` [Piperlongumine, 5,6-dihydro-1-[(2E)-1-oxo-3-(3,4,5-trimethoxyphenyl)-2-propenyl]-2(1 H)-pyridinone], the “Concentration of IL-6” value with IL-6 (Table 1, Piperlongumine 5 µM, co-treated with E.coli LPS, 24 hours, Control 98, LPS alone 2252) is reported as 103 pg/mL; in the series with IL-6 (Table 1, Piperlongumine 10 µM, co-treated with E.coli LPS, 24 hours, Control 98, LPS alone 2252), 117 pg/mL; with IL-6 (Table 2, Piperlongumine 10 µM, Control 122, LPS alone 3953) it was 91 pg/mL. Further, the viability at 24 h, 5 µM in series [2] (Table 1, Piperlongumine 5 µM, co-treated with E.coli LPS, 24 hours, Control 100, LPS alone 91) came to 100%. Further, the viability at 24 h, 10 µM in series [2] (Table 1, Piperlongumine 10 µM, co-treated with E.coli LPS, 24 hours, Control 100, LPS alone 91) was determined as 74%; in series [2] (Table 2, Piperlongumine 10 µM, Control 100, LPS alone 86) it was 39%. Further, the viability at 24 h, 15 µM in series [3] was 63.4%. Further, in series [4], the “Cell viability (%)” value was 63.38%.

Consider Vitamin E [reference compound], for which, in the series with IL-6 (Table 2, Vitamin E 100 µM, Control 122, LPS alone 3953), the “Concentration of IL-6” value came to 2998 pg/mL. Besides, the “Cell viability (%)” value in the series on THP-1 cells was found to be 73%.
